# How the values were obtained:
# [1] = target: T1, calcineurin/cyclophilin A (Homo sapiens, UniProt P62937+P63098+Q08209); assay: Calcineurin phosphatase (CaN) assay in the presence of Cyp A; type: biochemical; settings: inhibitor in 1:1 complex with Cyp A; read-out: CaN + CypA (IC50 in the calcineurin/cyclophilin A assay)
# T1 construct: purchased Enzo Life Sciences (calcineurin, calmodulin); Sigma (CypA) BML-AK804; C3805
# Excerpt: **Calcineurin Phosphatase (CaN) Assay The calcineurin phosphatase assay is a means for estimating the immunosuppressive potential of a test compound. Calcineurin is a serine-threonine protein phosphatase that on activation dephosphorylates members of the nuclear factor of activated T cells (NFAT), which are important in T lymphocyte activation. […] To investigate the immunosuppressive potential of exemplary compounds of Formula 1, which are novel cycloundecadepsipeptide compounds, their ability to inhibit calcineurin activity was measured in the presence of Cyp A. The CaN assay kit used is based on a colorimetric assay for measuring calcineurin phosphatase activity, and it is commercially available (Enzo Life Sciences and Calbiochem). Calmodulin is also required for calcineurin activity and RH phosphopeptide is used as an efficient peptide substrate for calcineurin. […] The detection of free phosphate released is based on the classic Malachite green assay. Enzo Life Sciences CaN Assay Kit: BML-AK804 2× assay buffer: 100 mM Tris, pH7.5, 200 mM NaCl, 12 mM MgCl2, 1 mM DTT, 0.05% NP-40, 1 mM CaCl2 Calmodulin (Human, Recombinant): was thawed on ice, diluted 1:50 with 2× assay buffer, and then stored on ice. Calcineurin: was thawed quickly, stored on ice immediately, diluted 1:12.5 with 1× assay buffer, and then stored on ice. R-II Substrate: 915 μL ultrapure water (UPW) was added to the 1.5 mg vial substrate to give a final concentration of 0.75 mM. Inhibitors: 2.5 mM inhibitor in 100% DMSO. Cyp A: recombinant human CypA (Sigma C3805), 1 mg/ml; Recombinant 6-his tagged CypA prepared by the Univ. of Edinburgh was also used. […] Inhibitor dilutions: inhibitor compounds were diluted in UPW in polypropylene low-binding 96 well plates at 5x the final assay concentration. For samples ‘without Cyp A’, a 4-point dilution series of the inhibitor was prepared in duplicate to obtain a final assay concentration of 10, 1, 0.1 and 0.01 μM. […] Cs A inhibitor controls were also prepared to obtain a final concentration of 10 μM Cs A with and without 10 μM Cyp A. Assay Setup: using the half area 96 well plates supplied with the kit, 10 μl UPW was added to duplicate wells to provide the non-inhibited control. 10 μl of the inhibitor or the inhibitor/Cyp A complex was added to the appropriate sample wells. 25 μl of the 2× assay buffer with CaM was added to all wells, then 5 μl of CaN was added to all wells (40 U per well final concentration) except duplicate ‘no calcineurin blank’ wells to which 5 μL 1× assay buffer was added. […] The reaction was started by the addition of 10 μl RII-peptide (0.15 mM final concentration). The reaction was allowed to proceed at 30° C. for a time period in which the reaction is linear for about 60 minutes. The reaction was then terminated by adding 100 μl of the Malachite Green reagent. […] The data were analyzed by subtracting ‘no Calcineurin blank’ from all the absorbance readings and plotting the background corrected absorbances against Log10 inhibitor concentration. A sigmoidal-dose response curve was fitted to the data using GraphPad Prism Software. […] It exerts its immunosuppressive activity by binding to cyclophilin A to form a complex, which then binds to calcineurin and thereby inhibits calcineurin activity.
# [2] = target: T2, cyclophilin A (Cyp A) (Homo sapiens, UniProt P62937); assay: Protease-free PPIase assay, cyclophilin A; type: biochemical
# T2 construct: purchased Sigma C3805
# T2 sequence (P62937 whole entry): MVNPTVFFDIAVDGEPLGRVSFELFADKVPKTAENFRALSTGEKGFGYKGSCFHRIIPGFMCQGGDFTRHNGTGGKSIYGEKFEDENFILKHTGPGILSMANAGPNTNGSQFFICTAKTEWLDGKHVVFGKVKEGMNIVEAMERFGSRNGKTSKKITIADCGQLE
# How it was run: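 Protease-free cis-trans isomerisation: 2 nM recombinant human cyclophilin A with 60 μM succinimide-peptide substrate in 35 mM HEPES pH 7.8 plus DTT, at 10.0 °C, max 0.5% DMSO. Absorbance at 330 nm was fitted to first-order kinetics, background subtracted, and catalytic rates versus inhibitor concentration gave Ki.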
# T1 sequence (P63098 whole entry, other chains not shown): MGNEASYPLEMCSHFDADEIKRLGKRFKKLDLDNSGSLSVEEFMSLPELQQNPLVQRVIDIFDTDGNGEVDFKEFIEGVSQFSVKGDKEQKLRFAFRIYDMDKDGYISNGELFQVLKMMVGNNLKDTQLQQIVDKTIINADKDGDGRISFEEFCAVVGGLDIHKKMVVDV
# T1 sequence (P62937 whole entry, other chains not shown): as the sequence (P62937 whole entry) above
smiles,measurement,setting,value
"CC(C)CC1NC(=O)[C@H](CC(C)C)N(C)C(=O)CN(C)C(=O)C([C@@H](C)O)NC(=O)C([C@H](O)[C@H](C)CCN2CCOCC2)N(C)C(=O)C(C(C)C)N(C)C(=O)C(CC(C)C)NC(=O)C(CC(C)C)N(C)C(=O)C(C(C)C)OC(=O)C(C)NC(=O)C(CC(C)C)N(C)C1=O (stereo in doubt) [Example 2, cyclo-[(3R,4R,5S)-4-(hydroxy)-3-methyl-5-(methylamino)-1-N-morpholino-hexanoic acid-Thr-Sar-MeLeu-Leu-MeLeu-Ala-D-Hiv-MeLeu-Leu-MeVal]]",IC50,[1],> 1000 nM
same,Ki,[2],9.2 nM

# Reference: patent US9382295B2, “Cyclic depsipeptide compounds and their uses” (Cypralis Limited, priority 2012, dated 2016)
